Reference: patent US20090149484A1, “QUINAZOLIN-4-ONE DERIVATIVES, PROCESS FOR THEIR PREPARATION AND PHARMACEUTICAL COMPOSITIONS CONTAINING THEM” (ASTRAZENECA AB, priority 2006, published 2009)

Target: T1, His-tagged Mutant B-Raf (V600E) enzyme (MT B-Raf) (Homo sapiens, UniProt P15056, V600E)
T1 construct: purified full length His-tagged Mutant B-Raf (V600E) enzyme; made in house; host or cells: insect cells
Assay: B-Raf in-vitro AlphaScreen assay
Format: biochemical
Conditions: phosphorylation of biotinylated HIS-MEK-AVI, 0.12 nM MT B-Raf, 24 μM ATP in mix
Description: B-Raf in-Vitro AlphaScreen Assay
Activity of purified full length His-tagged Mutant B-Raf (V600E) enzyme (MT B-Raf) was determined in-vitro using an Amplified Luminescent Proximity Homogeneous Assay (ALPHA)(Perkin Elmer, Mass.), which measures phosphorylation of the MT B-Raf substrate, biotinylated HIS-MEK-AVI (PLAZA internal database, construct #pAZB0141), as described below. MT B-Raf was expressed in insect cells and affinity purified by Ni^+2 agarose followed by Q-Sepharose chromatography. Typical yield was 1.08 mg/ml at >90% purity. The phosphorylation of the MT B-Raf substrate in the presence and absence of the compound of interest was determined. Briefly, 5 μl of enzyme/substrate/adenosine triphosphate (ATP) mix consisting of 0.12 nM MT B-Raf, 84 nM biotinylated HIS-MEK-AVI, and 24 μM ATP in 1.2× buffer was preincubated with 2 ul of compound for 20 minutes at 25° C. Reactions were initiated with 5 μl of Metal mix consisting of 24 mM MgCl2 in 1.2× buffer and incubated at 25° C. for 60 minutes and reactions were stopped by addition of 5 μl of Detection mix consisting of 20 mM HEPES, 102 mM ethylenediamine tetraacetic acid, 1.65 mg/ml BSA, 136 mM NaCl, 3.4 nM Phospho-MEK1/2 (Ser217/221) antibody (Catalog #9121, Cell Signaling Technology, MA), 40 μg/ml Streptavidin donor beads (Perkin Elmer, MA, Catalog #6760002), and 40 μg/ml Protein A acceptor beads (Perkin Elmer, MA, Catalog #6760137). Plates were incubated at 25° C. for 18 hours in the dark. Phosphorylated substrate was detected by an EnVision plate reader (Perkin Elmer, MA) 680 nm excitation, 520-620 nm emission. Data was graphed and IC50s calculated using Excel Fit (Microsoft).

T1 sequence (P15056 whole entry V600E): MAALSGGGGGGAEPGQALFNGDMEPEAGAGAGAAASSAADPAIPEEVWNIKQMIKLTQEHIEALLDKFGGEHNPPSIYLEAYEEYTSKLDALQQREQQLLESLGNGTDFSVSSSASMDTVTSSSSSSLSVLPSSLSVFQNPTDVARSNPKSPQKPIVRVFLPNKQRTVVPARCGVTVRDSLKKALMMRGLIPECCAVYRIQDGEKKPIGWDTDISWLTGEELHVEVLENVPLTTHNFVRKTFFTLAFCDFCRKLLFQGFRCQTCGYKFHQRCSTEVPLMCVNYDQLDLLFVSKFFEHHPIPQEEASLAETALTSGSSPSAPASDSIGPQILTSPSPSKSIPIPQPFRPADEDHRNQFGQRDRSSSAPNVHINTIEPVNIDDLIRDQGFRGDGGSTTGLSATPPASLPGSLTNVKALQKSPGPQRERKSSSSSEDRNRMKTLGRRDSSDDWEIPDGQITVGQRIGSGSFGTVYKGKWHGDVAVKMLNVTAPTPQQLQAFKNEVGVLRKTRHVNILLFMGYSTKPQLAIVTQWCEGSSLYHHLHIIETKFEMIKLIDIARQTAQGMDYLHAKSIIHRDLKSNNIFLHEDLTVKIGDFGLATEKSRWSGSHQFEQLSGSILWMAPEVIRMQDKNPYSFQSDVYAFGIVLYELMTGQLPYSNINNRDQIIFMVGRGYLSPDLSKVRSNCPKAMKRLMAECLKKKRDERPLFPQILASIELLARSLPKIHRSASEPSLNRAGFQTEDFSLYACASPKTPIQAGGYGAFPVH

IC50 [nM] | Structure (SMILES)
205 | Cc1cc(NC(=O)Nc2ccc(Cl)c(C(F)(F)F)c2)ccc1Oc1ccc2ncn(C)c(=O)c2c1 [Example 3, N-[4-Chloro-3-(trifluoromethyl)phenyl]-N′-{3-methyl-4-[(3-methyl-4-oxo-3,4-dihydroquinazolin-6-yl)oxy]phenyl}urea]
287 | Cn1cnc2ccc(Oc3ccc(NC(=O)Nc4ccc(Cl)c(C(F)(F)F)c4)cc3)cc2c1=O [Example 1, N-[4-Chloro-3-(trifluoromethyl)phenyl]-N′-{-4-[(3-methyl-4-oxo-3,4-dihydroquinazolin-6-yl)oxy]phenyl}urea]
340 | Cn1cnc2ccc(Oc3ccc(NC(=O)Nc4cccc(C(F)(F)F)c4F)cc3)cc2c1=O [Example 7, N-[2-Fluoro-3-(trifluoromethyl)phenyl]-N′-{4-[(3-methyl-4-oxo-3,4-dihydroquinazolin-6-yl)oxy]phenyl}urea]
